Measurements published in ChEMBL document CHEMBL5137009, “On the Utility of Chemical Strategies to Improve Peptide Gut Stability” (J Med Chem, 2022).

How the values were obtained:
[1] = Stability of the compound in simulated gastric fluid at pH 1.2 assessed as half life measured up to 24 hrs by RP-HPLC-UV analysis; format: ADME
[2] = Stability of the compound in simulated intestinal fluid at pH 6.8 assessed as half life measured up to 24 hrs by RP-HPLC-UV analysis; format: ADME

| half-life [1] [h] | half-life [2] [h] | SMILES |
| --- | --- | --- |
| > 24 | > 24 | CC[C@H](C)[C@@H]1NC(=O)[C@@H]2CCCN2C(=O)[C@H](Cc2c[nH]c3ccccc23)NC(=O)[C@H](CO)NC(=O)[C@@H]2CSSC[C@@H]3NC(=O)[C@H]([C@@H](C)O)NC(=O)[C@H](CCC(=O)O)NC(=O)CNC(=O)[C@@H]4CSSC[C@H](NC(=O)CNC(=O)[C@H](CCC(N)=O)NC(=O)[C@H]([C@@H](C)O)NC(=O)[C@H](Cc5ccc(O)cc5)NC(=O)[C@H](CSSC[C@H](NC1=O)C(=O)N[C@@H](CCCCN)C(=O)N[C@@H](CCCNC(=N)N)C(=O)N[C@@H](CC(N)=O)C(=O)NCC(=O)N[C@@H](CC(C)C)C(=O)N1CCC[C@H]1C(=O)N[C@@H](C(C)C)C(=O)N4)NC(=O)[C@H]([C@@H](C)O)NC(=O)CNC(=O)[C@H](CC(C)C)NC(=O)[C@H]([C@@H](C)O)NC3=O)C(=O)N[C@@H]([C@@H](C)O)C(=O)N2 |
| > 24 | > 24 | CC(C)C[C@@H]1NC(=O)CNC(=O)[C@H](CC(N)=O)NC(=O)[C@H](CCCNC(=N)N)NC(=O)[C@H]([C@@H](C)O)NC(=O)[C@@H]2CSSC[C@@H]3NC(=O)[C@H]([C@@H](C)O)NC(=O)CNC(=O)CNC(=O)[C@H](C(C)C)NC(=O)[C@@H]4CSSC[C@H](NC(=O)[C@H]([C@@H](C)O)NC(=O)[C@H](CSSC[C@H](NC(=O)[C@H](C(C)C)NC(=O)[C@@H]5CCCN5C1=O)C(=O)NCC(=O)N[C@@H](CCC(=O)O)C(=O)N[C@@H]([C@@H](C)O)C(=O)N4)NC(=O)CNC(=O)[C@@H]1CCCN1C(=O)[C@H]([C@@H](C)O)NC(=O)[C@H](CC(N)=O)NC3=O)C(=O)N[C@@H](CO)C(=O)N[C@@H](Cc1c[nH]c3ccccc13)C(=O)N1CCC[C@H]1C(=O)N[C@@H](C(C)C)C(=O)N2 |
